The text below walks through data of patent publication US9290440B2, “Bicyclic compound” (TOA EIYO LTD., priority 2012, dated 2016).

Test [1] deals with T1, human sGC α subunit and β subunit (Homo sapiens, UniProt Q02153).
T1 construct: expressed in transfected cells
T1 sequence (Q02153 1-619): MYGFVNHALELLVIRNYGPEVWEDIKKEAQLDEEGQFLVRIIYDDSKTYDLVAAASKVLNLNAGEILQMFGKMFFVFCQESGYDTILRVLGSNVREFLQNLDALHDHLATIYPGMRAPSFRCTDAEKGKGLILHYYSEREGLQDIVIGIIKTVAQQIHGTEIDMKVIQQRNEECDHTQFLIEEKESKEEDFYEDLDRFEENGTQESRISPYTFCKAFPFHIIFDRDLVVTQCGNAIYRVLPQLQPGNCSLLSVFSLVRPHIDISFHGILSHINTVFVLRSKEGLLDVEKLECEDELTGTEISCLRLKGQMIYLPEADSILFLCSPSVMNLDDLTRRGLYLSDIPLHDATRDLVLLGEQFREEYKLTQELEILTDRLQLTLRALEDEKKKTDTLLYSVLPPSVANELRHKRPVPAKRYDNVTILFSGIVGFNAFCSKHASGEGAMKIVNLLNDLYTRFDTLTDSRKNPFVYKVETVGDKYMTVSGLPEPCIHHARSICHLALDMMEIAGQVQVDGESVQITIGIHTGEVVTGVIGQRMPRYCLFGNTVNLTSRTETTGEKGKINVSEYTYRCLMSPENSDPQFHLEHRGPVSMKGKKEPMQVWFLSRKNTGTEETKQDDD
T1 sequence (Q02108 1-690 partner): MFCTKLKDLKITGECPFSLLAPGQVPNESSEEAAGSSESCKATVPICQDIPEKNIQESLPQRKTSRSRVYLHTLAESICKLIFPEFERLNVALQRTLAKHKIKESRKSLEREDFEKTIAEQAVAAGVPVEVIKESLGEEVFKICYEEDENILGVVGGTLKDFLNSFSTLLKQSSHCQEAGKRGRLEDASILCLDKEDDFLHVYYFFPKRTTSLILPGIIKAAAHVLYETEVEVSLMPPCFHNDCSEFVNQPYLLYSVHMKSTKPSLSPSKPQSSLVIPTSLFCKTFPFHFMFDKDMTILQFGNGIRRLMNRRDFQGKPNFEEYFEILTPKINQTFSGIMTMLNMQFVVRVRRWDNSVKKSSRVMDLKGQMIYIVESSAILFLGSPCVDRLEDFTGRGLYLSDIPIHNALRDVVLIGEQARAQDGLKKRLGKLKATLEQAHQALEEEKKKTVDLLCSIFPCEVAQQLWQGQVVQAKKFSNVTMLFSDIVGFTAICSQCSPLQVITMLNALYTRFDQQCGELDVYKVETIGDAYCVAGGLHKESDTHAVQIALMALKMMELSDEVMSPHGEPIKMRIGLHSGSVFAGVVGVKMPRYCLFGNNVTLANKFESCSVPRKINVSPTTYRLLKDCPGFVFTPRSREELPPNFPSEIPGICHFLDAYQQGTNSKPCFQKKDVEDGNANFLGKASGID
Kind of test: Maximum effect of sGC activating function (Ca2+ fluorescence in CHO-K1 cells expressing human sGC and mouse CNGA2). The test is classed as cell-based. The conditions noted are these: increase ratio of sGC activity vs control solution at 10 μmol/L test compound. How it is done: For the assay, Chinese hamster ovary cells (CHO-K1 cells) in which human sGC α subunit and β subunit and mouse cyclic nucleotide gated channel (CNGA2) are stably expressed were used.
CHO-K1 cells in which human sGC and mouse CNGA2 are stably expressed were cultured at 37° C. in F-12 medium containing 10% (v/v) fetal bovine serum (FBS), penicillin (100 U/mL), streptomycin (100 μg/mL), G418 (250 μg/mL), and zeocin (250 μg/mL). The cells were suspended in the culture medium and seeded onto a 96-well plate, and then cultured at 37° C. for 24 hours. After washing with assay buffer 1 (140 mmol/L sodium chloride, 5 mmol/L potassium chloride, 0.5 mmol/L magnesium chloride, 0.01 mmol/L calcium chloride, 10 mmol/L glucose, 0.4 mmol/L magnesium sulfate, 10 mmol/L 4-(2-hydroxyethyl)piperazin-1-ylethane sulfonic acid, and 125 μmol/L sulfinpyrazone, pH 7.4), an indicator solution in which FURA2-AM as a fluorescent Ca^2+ indicator is dissolved at concentration of 5 μmol/L in assay buffer 1 was added followed by culture for 60 minutes at 37° C. The indicator solution was removed. After washing with assay buffer 1, the test compound solution was added and incubated for 10 minutes at room temperature. The plate was placed in a fluorometer (Flex Station II, Molecular Devices, LLC), and then the intracellular calcium concentration was measured as fluorescence intensity ratio which is obtained from each excitation wavelength (excitation wavelength of 340 nm and 380 nm and detection wavelength of 510 nm).
The test compound solution was prepared by dissolving each of the test compounds in DMSO to a concentration of 10 mmol/L, and then adding the assay buffer 2 (140 mmol/L sodium chloride, 5 mmol/L potassium chloride, 0.5 mmol/L magnesium chloride, 1 mmol/L calcium chloride, 10 mmol/L glucose, 0.4 mmol/L magnesium sulfate, 10 mmol/L 4-(2-hydroxyethyl)piperazin-1-ylethane sulfonic acid, 125 μmol/L sulfinpyrazone, 100 μmol/L isobutylmethylxanthine, 10 μmol/L 1H-[1,2,4]-oxadiazole[4,3-a]quinoxalin-1-one (hereinbelow, ODQ), pH 7.4) for dilution to have test concentration of 10 μmol/L. For the evaluation of a case in which ODQ is not contained, the same evaluation was performed except that ODQ is excluded from assay buffer 2. As a control solution, a DMSO solution was used instead of the test compound solution.
The activity of the test compound corresponds to the increase ratio (%) of the sGC activity at the time of adding the test compound solution with respect to the sGC activity at the time of adding the control solution, and it was calculated by dividing the fluorescence intensity ratio at the time of adding the test compound by the fluorescence intensity ratio of the control solution and subtracting the sGC activity (100%) at the time of adding the control solution.
In this assay, intracellular cGMP concentration increases as sGC is activated, and according to opening of CNGA2 following the increase of cGMP, intracellular Ca^2+ concentration increases. Thus, SGC activation can be measured by following the change in intracellular Ca^2+ concentration. […] Thus, in the absence of ODQ, the maximum sGC activating function including the heme-dependent activation can be evaluated while the heme-independent sGC activating function can be evaluated in the presence of ODQ.

Test [2] relates to abdominal aorta ring specimen. Kind of test: Evaluation of blood vessel relaxing function (phenylephrine-contracted abdominal aorta ring). Particulars: relaxation of rat abdominal aorta contracted with 1 μmol/L phenylephrine; without vs with 10 μmol/L ODQ. How it is done: The representative compounds of the present invention were evaluated by blood vessel relaxing function according to the following Test Example. In the assay, bleeding from the upper part of a heart of a rat (male, SD) was performed under anesthesia with pentobarbital (30 mg/kg) and then abdominal aorta was extracted. The connecting tissue adhered around blood vessel was removed from the abdominal aorta in an ice-cooled Krebs-Henseleit solution (KH solution) (118 mmol/L sodium chloride, 4.7 mmol/L potassium chloride, 1.2 mmol/L magnesium sulfate, 1.2 mmol/L potassium dihydrogen phosphate, 25 mmol/L sodium hydrogen carbonate, 2.5 mmol/L calcium chloride, and 10 mmol/L glucose, pH 7.4). After that, a ring specimen with length of 2 mm was prepared and fixed in 5 mL organ bath filled with a KH solution. The KH solution was kept at 37° C. and aerated with a mixture gas of 95% O2 and 5% CO2. The specimen was stabilized for 1 hour with static tension of 1 g. The KH solution was exchanged twice during that time. The tension on the specimen was recorded on a multi-channel recorder via pickup and amplifier. After the stabilization of the specimen, contraction was caused by using 1 μmol/L phenylephrine (Phe), and cumulative administration of each compound (0.001, 0.01, 0.03, 0.1, 0.3, 1, 3, 10, 30, 100, 1000, 10000 nmol/L) was performed. For the evaluation of a case in which 1H-1,2,4-oxadiazole-(4,3a)-quinoxalin-1-one (ODQ) is contained, 10 μmol/L ODQ was added 10 minutes before the Phe addition, and the same evaluation as above was performed.
EC50 value was calculated using four-parameter logistics model using Assay Explorer (Accelrys). The test compound solution was dissolved in DMSO such that the concentration of each test compound is 1000 times the final concentration.

Where [3] appears, read: ODQ not contained, read-out: Emax (%) ODQ− (Heme-dependent).
Where [4] appears, read: with 10 μmol/L ODQ, read-out: Emax (%) ODQ+ (Heme-independent).

Where two headings read alike, the source gives them in different places.

By Emax is commonly meant the maximal effect, on the per cent scale that the assay sets.

Regarding `CC(C)c1ccc(COc2ccccc2CCN(CCCCC(=O)O)C2CCCc3cc(C(=O)O)ccc32)cc1` (stereo not drawn) [Example 43, 5-{N-(4-Carboxybutyl)-N-[2-[2-(4-isopropylbenzyloxy)phenyl]ethyl]amino}-5,6,7,8-tetrahydronaphthalene-2-carboxylic acid], the results for the Emax at 10 µM in test [1] (setting [3]) and in test [1] (setting [4]) were 90.3% and 107%, respectively. Besides, the “EC50 Ratio (ODQ−/ODQ+)” value in test [2] came to 5.5.
For `C[C@@H](Oc1ccccc1CCN(CCCCC(=O)O)C1CCCc2cc(C(=O)O)ccc21)c1ccc(C(C)(C)C)cc1` (stereo partly drawn) [Example 45, 5-{N-[2-[2-[(1R)-1-(4-tert-Butylphenyl)ethoxy]phenyl]ethyl]-N-(4-carboxybutyl)amino}-5,6,7,8-tetrahydronaphthalene-2-carboxylic acid], in that order: 95.3%, 121% and 3.5.
`O=C(O)CCCCN(CCc1ccccc1OCc1ccc2c(c1)CCC2)C1CCCc2cc(C(=O)O)ccc21` (stereo not drawn) [Example 46, 5-{N-(4-Carboxybutyl)-N-[2-[2-(indane-5-ylmethoxy)phenyl]ethyl]amino}-5,6,7,8-tetrahydronaphthalene-2-carboxylic acid]: the Emax at 10 µM in test [1] (setting [3]) was determined as 81.3%; in test [1] (setting [4]), 123%. Besides, the “EC50 Ratio (ODQ−/ODQ+)” value in test [2] is reported as 5.2.
